Results on 15 molecules are retold here after patent US20260193264A1, “BENZOYPARAZINE PYRAZINES AND THEIR USES” (FOGHORN THERAPEUTICS INC., priority 2022, published 2026).

A value given as a limit tells only on which side of the number the result lay.

Assay [1] concerns the target T1, HiBiT-BRM fusion protein in stable HeLa cell line (Homo sapiens, UniProt P51531).
T1 construct: expressed in transfected cells
Kind of assay: HiBiT-BRM cell-based degradation assay (Nano-Glo HiBiT Lytic Detection, 24 h). Details: DC50: scale not given here. The following applies: HeLa HiBiT-BRM cells; for DC50: read-out: BRM HiBit Degradation IC50; for BRM HiBit Degradation Maximum (%): top dose 30 μM. The gist of the method: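 Stable HiBiT-BRM HeLa cells treated 24 h with 10-point 3-fold dilutions, top final dose 30 μM, in duplicate. Luminescence read after lytic LgBiT reagent. Percent degradation was normalised to DMSO (high control) and 2 μM reference BRM/BRG1 degrader (low control).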

Assay [2] has as its target T2, HiBit-BRG1 fusion protein in stable HeLa cell line expressing HiBit-BRG1 and LgBit (Homo sapiens, UniProt P51532).
T2 construct: expressed in transfected cells
Kind of assay: HiBiT-BRG1 cell-based degradation assay (Nano-Glo HiBiT, 24 h). The conditions noted are these: HeLa HiBit-BRG1/LgBit cells; for DC50: read-out: BRMG1 HiBit Degradation IC50; for Dmax: top dose 30 μM, read-out: BRG1 HiBit Degradation Maximum (%). The gist of the method:
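Stable HeLa line co-expressing HiBiT-BRG1 and LgBiT, compound-treated 24 h; luminescence read after Nano-Glo HiBiT lytic reagent. % degradation normalised between DMSO (high control) and 2 μM reference BRM/BRG1 degrader (low control).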

T2 sequence (P51532 whole entry, the tested form may be a part): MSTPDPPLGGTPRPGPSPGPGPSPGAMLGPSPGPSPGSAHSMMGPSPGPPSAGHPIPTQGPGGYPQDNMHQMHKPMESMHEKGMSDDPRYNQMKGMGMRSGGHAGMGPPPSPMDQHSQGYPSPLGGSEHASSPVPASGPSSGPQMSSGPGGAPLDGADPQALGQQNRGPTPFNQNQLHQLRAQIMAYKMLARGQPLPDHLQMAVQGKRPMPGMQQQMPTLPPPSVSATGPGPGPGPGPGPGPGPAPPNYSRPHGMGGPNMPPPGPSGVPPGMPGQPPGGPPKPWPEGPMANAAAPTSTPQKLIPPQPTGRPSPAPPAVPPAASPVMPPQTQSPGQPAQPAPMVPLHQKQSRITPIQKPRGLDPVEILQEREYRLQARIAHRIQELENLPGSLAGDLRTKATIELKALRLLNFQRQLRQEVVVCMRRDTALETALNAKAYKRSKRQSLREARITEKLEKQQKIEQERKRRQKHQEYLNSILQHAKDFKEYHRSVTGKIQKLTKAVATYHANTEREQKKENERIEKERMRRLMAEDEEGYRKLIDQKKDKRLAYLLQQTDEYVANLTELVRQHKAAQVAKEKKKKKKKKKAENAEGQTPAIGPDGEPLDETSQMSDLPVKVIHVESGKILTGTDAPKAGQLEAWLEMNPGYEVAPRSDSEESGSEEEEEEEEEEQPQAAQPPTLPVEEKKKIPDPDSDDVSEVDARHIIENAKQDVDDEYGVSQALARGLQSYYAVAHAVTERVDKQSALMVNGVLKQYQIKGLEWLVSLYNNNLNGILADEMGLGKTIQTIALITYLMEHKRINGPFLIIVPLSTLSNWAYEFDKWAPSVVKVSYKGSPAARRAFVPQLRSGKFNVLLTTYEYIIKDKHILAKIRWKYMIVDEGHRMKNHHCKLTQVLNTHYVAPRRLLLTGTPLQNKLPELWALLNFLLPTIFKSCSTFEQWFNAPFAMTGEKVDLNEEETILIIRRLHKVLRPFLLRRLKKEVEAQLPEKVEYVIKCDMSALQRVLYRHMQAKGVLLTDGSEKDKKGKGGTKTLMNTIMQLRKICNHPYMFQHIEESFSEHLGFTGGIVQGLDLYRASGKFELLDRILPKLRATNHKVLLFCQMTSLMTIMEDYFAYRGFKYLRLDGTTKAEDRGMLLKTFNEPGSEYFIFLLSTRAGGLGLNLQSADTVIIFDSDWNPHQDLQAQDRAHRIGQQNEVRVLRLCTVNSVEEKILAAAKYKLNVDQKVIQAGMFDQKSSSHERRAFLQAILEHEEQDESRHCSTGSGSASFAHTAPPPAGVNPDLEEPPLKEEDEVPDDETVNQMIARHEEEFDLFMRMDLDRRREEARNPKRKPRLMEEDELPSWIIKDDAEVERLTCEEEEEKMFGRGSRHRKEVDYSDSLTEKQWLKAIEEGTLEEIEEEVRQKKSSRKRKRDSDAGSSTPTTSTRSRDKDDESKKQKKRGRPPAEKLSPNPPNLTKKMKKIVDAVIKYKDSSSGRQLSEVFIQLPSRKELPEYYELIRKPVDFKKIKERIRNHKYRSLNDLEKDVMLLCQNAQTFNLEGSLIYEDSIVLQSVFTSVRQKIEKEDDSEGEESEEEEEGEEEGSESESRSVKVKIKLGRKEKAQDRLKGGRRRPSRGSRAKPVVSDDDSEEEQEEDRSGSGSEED
T1 sequence (P51531 whole entry, the tested form may be a part): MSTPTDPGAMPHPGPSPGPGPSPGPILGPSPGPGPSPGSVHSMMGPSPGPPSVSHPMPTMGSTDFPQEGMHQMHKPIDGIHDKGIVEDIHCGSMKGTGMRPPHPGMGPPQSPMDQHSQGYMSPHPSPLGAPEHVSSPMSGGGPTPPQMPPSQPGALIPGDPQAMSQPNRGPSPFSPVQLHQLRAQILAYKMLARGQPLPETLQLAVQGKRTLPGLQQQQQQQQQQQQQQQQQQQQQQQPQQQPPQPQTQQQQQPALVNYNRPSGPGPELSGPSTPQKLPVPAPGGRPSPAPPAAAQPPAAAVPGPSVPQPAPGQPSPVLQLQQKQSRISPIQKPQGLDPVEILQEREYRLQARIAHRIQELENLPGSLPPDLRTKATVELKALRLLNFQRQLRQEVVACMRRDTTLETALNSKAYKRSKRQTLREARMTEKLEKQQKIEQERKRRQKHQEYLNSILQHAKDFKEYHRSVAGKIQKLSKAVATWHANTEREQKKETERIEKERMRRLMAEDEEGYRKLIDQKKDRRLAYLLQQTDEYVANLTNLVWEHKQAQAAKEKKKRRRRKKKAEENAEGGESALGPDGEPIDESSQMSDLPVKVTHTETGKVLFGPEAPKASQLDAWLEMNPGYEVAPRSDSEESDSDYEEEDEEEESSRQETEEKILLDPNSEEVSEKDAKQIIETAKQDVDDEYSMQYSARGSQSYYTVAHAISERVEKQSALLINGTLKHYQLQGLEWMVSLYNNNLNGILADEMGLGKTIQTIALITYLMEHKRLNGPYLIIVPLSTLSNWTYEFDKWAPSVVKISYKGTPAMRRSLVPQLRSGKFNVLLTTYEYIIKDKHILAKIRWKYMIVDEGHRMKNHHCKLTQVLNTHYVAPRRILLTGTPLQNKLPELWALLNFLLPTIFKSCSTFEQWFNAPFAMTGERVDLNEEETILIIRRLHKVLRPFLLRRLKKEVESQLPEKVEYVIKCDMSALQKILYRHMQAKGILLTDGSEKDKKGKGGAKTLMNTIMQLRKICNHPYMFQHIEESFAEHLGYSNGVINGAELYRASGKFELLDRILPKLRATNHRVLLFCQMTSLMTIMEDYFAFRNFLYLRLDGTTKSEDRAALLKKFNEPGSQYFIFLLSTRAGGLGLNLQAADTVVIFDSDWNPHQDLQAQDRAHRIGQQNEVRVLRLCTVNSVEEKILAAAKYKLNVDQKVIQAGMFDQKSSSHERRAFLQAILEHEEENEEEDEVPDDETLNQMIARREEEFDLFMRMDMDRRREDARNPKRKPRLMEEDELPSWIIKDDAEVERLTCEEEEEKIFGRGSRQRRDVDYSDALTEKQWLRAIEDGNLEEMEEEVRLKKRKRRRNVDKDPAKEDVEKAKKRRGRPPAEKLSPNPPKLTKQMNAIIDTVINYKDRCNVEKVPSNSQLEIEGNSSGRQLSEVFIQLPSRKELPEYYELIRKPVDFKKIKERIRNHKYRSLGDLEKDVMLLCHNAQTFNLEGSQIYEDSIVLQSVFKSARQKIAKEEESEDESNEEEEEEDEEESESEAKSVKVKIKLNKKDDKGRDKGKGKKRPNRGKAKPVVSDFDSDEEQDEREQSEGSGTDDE

As for `Cc1ncsc1-c1ccc([C@H](C)NC(=O)[C@@H]2C[C@@H](O)CN2C(=O)[C@@H](c2cc(C3CC4(C3)CN(c3ccc5cc(-c6ccccc6O)nnc5c3)C4)no2)C(C)C)cc1` [Compound 199, (2S,4R)-4-hydroxy-1-((R)-2-(3-(2-(3-(2-hydroxyphenyl)cinnolin-7-yl)-2-azaspiro[3.3]heptan-6-yl)isoxazol-5-yl)-3-methylbutanoyl)-N-((S)-1-(4-(4-methylthiazol-5-yl)phenyl)ethyl)pyrrolidine-2-carboxamide], in assay [1], the DC50 was less than 10 nM and the “BRM HiBit Degradation Maximum (%)” value is “A (“A” indicates maximum degradation ≥75%)”. For the same molecule, in assay [2], the DC50 is more than 10 nM and the Dmax is more than 75%.

As for `Cc1ncsc1-c1ccc([C@H](C)NC(=O)[C@@H]2C[C@@H](O)CN2C(=O)C(C(C)C)n2cc(N3CCC(C4CN(c5ccc6nnc(-c7ccccc7O)cc6c5)C4)C3)nn2)cc1` (stereo partly drawn) [Compound 269, (2S,4R)-4-hydroxy-1-(2-(4-(3-(1-(3-(2-hydroxyphenyl)cinnolin-6-yl)azetidin-3-yl)pyrrolidin-1-yl)-1H-1,2,3-triazol-1-yl)-3-methylbutanoyl)-N-((S)-1-(4-(4-methylthiazol-5-yl)phenyl)ethyl)pyrrolidine-2-carboxamide], in assay [1], the DC50 is less than 10 nM and the “BRM HiBit Degradation Maximum (%)” value is given as “A (“A” indicates maximum degradation ≥75%)”. Moreover, in assay [2], the DC50 is more than 10 nM and the Dmax was more than 75%.

In the case of `Cc1ncsc1-c1ccc([C@H](C)NC(=O)[C@@H]2C[C@@H](O)CN2C(=O)[C@@H](c2cc(N3CC4(CC(c5cc6nnc(-c7ccccc7O)cc6cc5C#N)C4)C3)no2)C(C)C)cc1` [Compound 222, (2S,4R)-1-((R)-2-(3-(6-(6-cyano-3-(2-hydroxyphenyl)cinnolin-7-yl)-2-azaspiro[3.3]heptan-2-yl)isoxazol-5-yl)-3-methylbutanoyl)-4-hydroxy-N-((S)-1-(4-(4-methylthiazol-5-yl)phenyl)ethyl)pyrrolidine-2-carboxamide], in assay [1], the DC50 is less than 10 nM and the “BRM HiBit Degradation Maximum (%)” value is “A (“A” indicates maximum degradation ≥75%)”. In assay [2], the Dmax was less than 50%.

For the molecule `Cc1ncsc1-c1ccc([C@H](C)NC(=O)[C@@H]2C[C@@H](O)CN2C(=O)[C@@H](c2cc(N3CC[C@@H](c4ccc5cc(-c6ccccc6O)nnc5c4)C3)no2)C(C)C)cc1` [Compound 58, (2S,4R)-4-hydroxy-1-((R)-2-(3-((S)-3-(3-(2-hydroxyphenyl)cinnolin-7-yl)pyrrolidin-1-yl)isoxazol-5-yl)-3-methylbutanoyl)-N-((S)-1-(4-(4-methylthiazol-5-yl)phenyl)ethyl)pyrrolidine-2-carboxamide], in assay [1], the DC50 was less than 10 nM and the “BRM HiBit Degradation Maximum (%)” value is “A (“A” indicates maximum degradation ≥75%)”. Moreover, in assay [2], the Dmax was less than 50%.

Consider `Cc1ncsc1-c1ccc([C@H](C)NC(=O)[C@@H]2C[C@@H](O)CN2C(=O)[C@H](c2cc(-c3cnc(N4CC[C@@H](c5ccc6cc(-c7ccccc7O)nnc6c5)C4)nc3)no2)C(C)C)cc1` [Compound 19], for which, in assay [1], the DC50 was more than 100 nM and the “BRM HiBit Degradation Maximum (%)” value is listed as “B (“B” indicates maximum degradation ≥50%)”. Further, the Dmax in assay [2] was less than 50%.

For the molecule `Cc1ncsc1-c1ccc([C@H](C)NC(=O)[C@@H]2C[C@@H](O)CN2C(=O)[C@H](c2cc(-c3cnc(N4CC(c5ccc6nnc(-c7ccccc7O)cc6c5)C4)nc3)no2)C(C)C)cc1` [Compound 5, (2S,4R)-4-hydroxy-1-[(2S)-2-[3-(2-{3-[3-(2-hydroxyphenyl)cinnolin-6-yl]azetidin-1-yl}pyrimidin-5-yl)-1,2-oxazol-5-yl]-3-methylbutanoyl]-N-[(1S)-1-[4-(4-methyl-1,3-thiazol-5-yl)phenyl]ethyl]pyrrolidine-2-carboxamide], in assay [1], the DC50 is more than 100 nM and the “BRM HiBit Degradation Maximum (%)” value is reported as “B (“B” indicates maximum degradation ≥50%)”. Further, the Dmax in assay [2] was less than 50%.

Take `Cc1ncsc1-c1ccc([C@H](C)NC(=O)[C@@H]2C[C@@H](O)CN2C(=O)[C@@H](c2cc(N3CCC(CN4CC(c5ccc6nnc(-c7ccccc7O)cc6c5)C4)CC3)no2)C(C)C)cc1` [Compound 2, (2S,4R)-4-hydroxy-1-((R)-2-(3-(4-((3-(3-(2-hydroxyphenyl)cinnolin-6-yl)azetidin-1-yl)methyl)piperidin-1-yl)isoxazol-5-yl)-3-methylbutanoyl)-N-((S)-1-(4-(4-methylthiazol-5-yl)phenyl)ethyl)pyrrolidine-2-carboxamide]: in assay [1], the DC50 is more than 10 nM and the “BRM HiBit Degradation Maximum (%)” value is “A (“A” indicates maximum degradation ≥75%)”. In assay [2], the Dmax is less than 50%.

Take `Cc1ncsc1-c1ccc([C@H](C)NC(=O)[C@@H]2C[C@@H](O)CN2C(=O)[C@H](c2cc(N3CC4(CC(c5ccc6cc(-c7ccccc7O)nnc6c5)C4)C3)no2)C(C)C)cc1` [Compound 33]: in assay [1], the DC50 was more than 100 nM and the “BRM HiBit Degradation Maximum (%)” value was “A (“A” indicates maximum degradation ≥75%)”. The Dmax in assay [2] was less than 50%.

For `Cc1ncsc1-c1ccc([C@H](C)NC(=O)[C@@H]2C[C@@H](O)CN2C(=O)[C@@H](c2cc(N3CCC(Oc4ccc5cc(-c6ccccc6O)nnc5c4)CC3)no2)C(C)C)cc1` [Compound 183, (2S,4R)-4-hydroxy-1-((R)-2-(3-(4-((3-(2-hydroxyphenyl)cinnolin-7-yl)oxy)piperidin-1-yl)isoxazol-5-yl)-3-methylbutanoyl)-N-((S)-1-(4-(4-methylthiazol-5-yl)phenyl)ethyl)pyrrolidine-2-carboxamide], in assay [1], the DC50 was less than 10 nM and the “BRM HiBit Degradation Maximum (%)” value is “A (“A” indicates maximum degradation ≥75%)”. In addition, in assay [2], the DC50 was more than 10 nM and the Dmax was more than 50%.

Regarding `Cc1cc(N2CCC(c3ccc4nnc(-c5ccccc5O)cc4c3)CC2)ncc1-c1cc([C@H](C(=O)N2C[C@H](O)C[C@H]2C(=O)N[C@@H](C)c2ccc(-c3scnc3C)cc2)C(C)C)on1` [Compound 70, (2S,4R)-4-hydroxy-1-((R)-2-(3-(6-(4-(3-(2-hydroxyphenyl)cinnolin-6-yl)piperidin-1-yl)-4-methylpyridin-3-yl)isoxazol-5-yl)-3-methylbutanoyl)-N-((S)-1-(4-(4-methylthiazol-5-yl)phenyl)ethyl)pyrrolidine-2-carboxamide], in assay [1], the DC50 is more than 10 nM and the “BRM HiBit Degradation Maximum (%)” value was “A (“A” indicates maximum degradation ≥75%)”. Besides, in assay [2], the DC50 is more than 10 nM and the Dmax is more than 50%.

Turning to `Cc1ncsc1-c1ccc([C@H](C)NC(=O)[C@@H]2C[C@@H](O)CN2C(=O)[C@@H](c2cc(N3CC4(CN(c5cc(C)c6cc(-c7ccccc7O)nnc6c5)C4)C3)no2)C(C)C)cc1` [Compound 145, (2S,4R)-4-hydroxy-1-((R)-2-(3-(6-(3-(2-hydroxyphenyl)-5-methylcinnolin-7-yl)-2,6-diazaspiro[3.3]heptan-2-yl)isoxazol-5-yl)-3-methylbutanoyl)-N-((S)-1-(4-(4-methylthiazol-5-yl)phenyl)ethyl)pyrrolidine-2-carboxamide], in assay [1], the DC50 is less than 10 nM and the “BRM HiBit Degradation Maximum (%)” value is recorded as “A (“A” indicates maximum degradation ≥75%)”. Further, the Dmax in assay [2] was less than 50%.

On to `Cc1ncsc1-c1ccc([C@H](C)NC(=O)[C@@H]2C[C@@H](O)CN2C(=O)[C@H](C(C)C)n2cc(N3CC4(CN(c5ccc6nnc(-c7ccccc7O)cc6c5)C4)C3)nn2)cc1` [Compound 172, (2S,4R)-4-hydroxy-1-((S)-2-(4-(6-(3-(2-hydroxyphenyl)cinnolin-6-yl)-2,6-diazaspiro[3.3]heptan-2-yl)-1H-1,2,3-triazol-1-yl)-3-methylbutanoyl)-N-((S)-1-(4-(4-methylthiazol-5-yl)phenyl)ethyl)pyrrolidine-2-carboxamide], for which, in assay [1], the DC50 is less than 10 nM and the “BRM HiBit Degradation Maximum (%)” value was “A (“A” indicates maximum degradation ≥75%)”. Besides, in assay [2], the DC50 was less than 10 nM and the Dmax was more than 50%.

On to `C#Cc1ccc([C@H](C)NC(=O)[C@@H]2C[C@@H](O)CN2C(=O)[C@@H](c2cc(N3CC4(CN(c5ccc6cc(-c7ccccc7O)nnc6c5)C4)C3)no2)C(C)C)c(Cl)c1` [Compound 284], for which, in assay [1], the DC50 is less than 10 nM and the “BRM HiBit Degradation Maximum (%)” value is recorded as “A (“A” indicates maximum degradation ≥75%)”. Also, the Dmax in assay [2] is less than 50%.

With `Cc1ncsc1-c1ccc([C@H](C)NC(=O)[C@@H]2C[C@@H](O)CN2C(=O)[C@H](C(C)C)n2cnc(N3CC4(CN(c5ccc6nnc(-c7ccccc7O)cc6c5)C4)C3)c2)cc1` [Compound 272, (2S,4R)-4-hydroxy-1-((S)-2-(4-(6-(3-(2-hydroxyphenyl)cinnolin-6-yl)-2,6-diazaspiro[3.3]heptan-2-yl)-1H-imidazol-1-yl)-3-methylbutanoyl)-N-((S)-1-(4-(4-methylthiazol-5-yl)phenyl)ethyl)pyrrolidine-2-carboxamide], in assay [1], the DC50 is more than 100 nM and the “BRM HiBit Degradation Maximum (%)” value is listed as “A (“A” indicates maximum degradation ≥75%)”. In assay [2], the Dmax was less than 50%.

Take `Cc1ncsc1-c1ccc([C@H](C)NC(=O)[C@@H]2C[C@@H](O)CN2C(=O)[C@H](C(C)C)n2cc(-c3ccc4nnc(-c5ccccc5O)cc4c3Cl)nn2)cc1` [Compound 190, (2S,4R)-1-((S)-2-(4-(5-chloro-3-(2-hydroxyphenyl)cinnolin-6-yl)-1H-1,2,3-triazol-1-yl)-3-methylbutanoyl)-4-hydroxy-N-((S)-1-(4-(4-methylthiazol-5-yl)phenyl)ethyl)pyrrolidine-2-carboxamide]: in assay [1], the DC50 was less than 10 nM and the “BRM HiBit Degradation Maximum (%)” value was “A (“A” indicates maximum degradation ≥75%)”. In addition, the Dmax in assay [2] is less than 50%.
